In PubChem BioAssay (NCI):
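These data come from cells grown in 96-well plates and exposed to compound for 48 hours at five concentrations. TGI marks complete inhibition of growth.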

Assays:
Test in all cases: NCI tumour cell line growth inhibition, 48 h
OVCAR-3 ovarian = system: OVCAR-3 ovarian
HCC-2998 colon = system: HCC-2998 colon
IGROV1 ovarian = system: IGROV1 ovarian
U251 CNS = system: U251 CNS
ACHN renal = system: ACHN renal
SF-539 CNS = system: SF-539 CNS
HOP-92 NSCLC = system: HOP-92 NSCLC
LOX IMVI melanoma = system: LOX IMVI melanoma
MALME-3M melanoma = system: MALME-3M melanoma
OVCAR-4 ovarian = system: OVCAR-4 ovarian
786-0 renal = system: 786-0 renal
SW-620 colon = system: SW-620 colon
SF-295 CNS = system: SF-295 CNS
A549 NSCLC = system: A549 NSCLC
NCI-H23 lung = system: NCI-H23 lung
CAKI-1 renal = system: CAKI-1 renal
TK-10 renal = system: TK-10 renal
LXFL 529 NSCLC = system: LXFL 529 NSCLC
RXF-631 renal = system: RXF-631 renal
RPMI-8226 leukemia = system: RPMI-8226 leukemia
SK-OV-3 ovarian = system: SK-OV-3 ovarian
KM12 colon = system: KM12 colon
SNB-19 CNS = system: SNB-19 CNS
NCI-H226 lung = system: NCI-H226 lung
SR leukemia = system: SR leukemia
XF 498 CNS = system: XF 498 CNS
DMS 273 small cell lung = system: DMS 273 small cell lung
SF-268 CNS = system: SF-268 CNS
DLD-1 colon = system: DLD-1 colon
SK-MEL-2 melanoma = system: SK-MEL-2 melanoma
HT29 colon = system: HT29 colon
SK-MEL-5 melanoma = system: SK-MEL-5 melanoma
K-562 leukemia = system: K-562 leukemia
HL-60(TB) leukemia = system: HL-60(TB) leukemia
RXF 393 renal = system: RXF 393 renal
KM20L2 colon = system: KM20L2 colon
UACC-62 melanoma = system: UACC-62 melanoma
M14 melanoma = system: M14 melanoma
NCI-H522 lung = system: NCI-H522 lung
UO-31 renal = system: UO-31 renal
A498 renal = system: A498 renal
CCRF-CEM leukemia = system: CCRF-CEM leukemia
OVCAR-5 ovarian = system: OVCAR-5 ovarian
SK-MEL-28 melanoma = system: SK-MEL-28 melanoma
NCI-H460 lung = system: NCI-H460 lung
HCT-15 colon = system: HCT-15 colon
OVCAR-8 ovarian = system: OVCAR-8 ovarian
EKVX NSCLC = system: EKVX NSCLC
SNB-75 CNS = system: SNB-75 CNS
COLO 205 colon = system: COLO 205 colon
MOLT-4 leukemia = system: MOLT-4 leukemia
M19-MEL melanoma = system: M19-MEL melanoma
HOP-62 NSCLC = system: HOP-62 NSCLC
UACC-257 melanoma = system: UACC-257 melanoma
DMS 114 small cell lung = system: DMS 114 small cell lung
SN12C renal = system: SN12C renal
SNB-78 CNS = system: SNB-78 CNS

Measured: TGI

COC1=CC(=O)[C@@]2(C)C(C)[C@H](c3ccccc3)[C@H]2C1=O (stereo partly drawn)
not listed: DMS 114 small cell lung | SN12C renal | SNB-78 CNS
> 100 µM: all other assays above

CC(=O)OC1COC(N2C(=O)C(=O)c3ccccc32)C(OC(C)=O)C1OC(C)=O (stereo not drawn)
not listed: XF 498 CNS | HL-60(TB) leukemia | OVCAR-5 ovarian
> 100 µM: all other assays above
